US10413535B2, “Pharmaceutical compositions comprising an integrin ALPHA4 antagonist for use in treating ocular inflammatory conditions” (AXEROVISION, INC., priority 2015, dated 2019)

Key:
[1] = system: J6 cell adhesion to MAdCAM; assay: MAdCAM cell adhesion assay, J6 cells; type: cell-based, human
Procedure: (§1) Jurkat J6 cells (human lymphoblast cell line) were grown as a suspension culture in RPMI 1640 supplemented with FCS (10%) and glutamine (2 mM). RPMI8866 cells (human B lymphoid cell line) were grown as a suspension culture in RPMI 1640 supplemented with FCS (10%) and glutamine (2 mM). RBL-2H3 cells (rat basophilic cell line) were cultured in Eagle's MEM plus Earles salts supplemented with 2 mM L-glutamine, 1 mM sodium pyruvate, 1× non-essential amino acids, 1 mM Na pyruvate 10% heat inactivated foetal calf serum.
(§2) Polystyrene 96-well microtitre plates were coated with IgG at a concentration of 0.05 mg/mL in bicarbonate buffer for 2.5 hours at 37° C. The solution was aspirated and the plates washed twice with PBS. The plates were then incubated overnight at 4° C. with MAdCAM at a concentration of 204.0 ng/mL in 3% BSA in PBS. Prior to use the MAdCAM was aspirated and the plates washed twice with PBS. J6 or RPMI cells (as required) were labelled with the fluorescent dye BCECF-AM (10 μM and 6×10^6 cells/mL) for 10 min at 37° C. before the excess was removed by centrifugation at 500 g for 5 min and the cells resuspended at a cell concentration of 1.2×10^7 cells/mL in HBSS. Equal volumes of HBSS containing the compound of formula I (over concentration range 38.1 pM to 10 μM) and cells were added to the MAdCAM coated plates. […] The plates were counted in a Wallac Viktor.

α4β7-MAdCAM = molecular target: T1, α4β7-MAdCAM (Homo sapiens, UniProt P13612+P26010); assay: MAdCAM cell adhesion assay, RPMI 8866 cells; type: cell-based; details: RPMI 8866 cells to MAdCAM; read-out: Inhibition of cell adhesion (IC50)
T1 construct: endogenous in cells; host or cells: RPMI 8866 cells (human B lymphoid cell line)
T1 sequence (P13612 34-1032): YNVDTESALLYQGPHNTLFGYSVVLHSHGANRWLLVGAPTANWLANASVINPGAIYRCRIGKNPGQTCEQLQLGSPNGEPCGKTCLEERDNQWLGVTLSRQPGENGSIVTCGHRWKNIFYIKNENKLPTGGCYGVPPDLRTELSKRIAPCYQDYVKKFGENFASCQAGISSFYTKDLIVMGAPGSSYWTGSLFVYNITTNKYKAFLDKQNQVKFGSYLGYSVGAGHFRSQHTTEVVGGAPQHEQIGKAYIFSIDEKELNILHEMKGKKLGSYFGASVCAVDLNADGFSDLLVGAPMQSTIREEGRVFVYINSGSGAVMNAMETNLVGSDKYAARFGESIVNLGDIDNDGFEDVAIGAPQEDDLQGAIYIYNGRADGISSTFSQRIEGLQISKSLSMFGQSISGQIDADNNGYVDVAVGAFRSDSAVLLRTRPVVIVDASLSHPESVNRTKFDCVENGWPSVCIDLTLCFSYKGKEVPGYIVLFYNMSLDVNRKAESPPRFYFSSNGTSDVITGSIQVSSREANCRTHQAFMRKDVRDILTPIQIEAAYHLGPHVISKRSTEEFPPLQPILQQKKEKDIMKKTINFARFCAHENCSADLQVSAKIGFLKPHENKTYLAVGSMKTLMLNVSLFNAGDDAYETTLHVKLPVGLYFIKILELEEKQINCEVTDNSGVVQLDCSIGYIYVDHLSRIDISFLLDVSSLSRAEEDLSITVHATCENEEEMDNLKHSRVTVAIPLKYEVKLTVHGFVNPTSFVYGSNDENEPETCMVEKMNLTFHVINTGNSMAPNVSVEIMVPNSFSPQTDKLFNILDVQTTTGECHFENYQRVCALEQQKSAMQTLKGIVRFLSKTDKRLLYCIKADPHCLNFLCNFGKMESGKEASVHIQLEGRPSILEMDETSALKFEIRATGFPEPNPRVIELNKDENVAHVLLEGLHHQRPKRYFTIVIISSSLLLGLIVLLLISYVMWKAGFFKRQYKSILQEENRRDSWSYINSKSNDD
T1 sequence (P26010 20-798): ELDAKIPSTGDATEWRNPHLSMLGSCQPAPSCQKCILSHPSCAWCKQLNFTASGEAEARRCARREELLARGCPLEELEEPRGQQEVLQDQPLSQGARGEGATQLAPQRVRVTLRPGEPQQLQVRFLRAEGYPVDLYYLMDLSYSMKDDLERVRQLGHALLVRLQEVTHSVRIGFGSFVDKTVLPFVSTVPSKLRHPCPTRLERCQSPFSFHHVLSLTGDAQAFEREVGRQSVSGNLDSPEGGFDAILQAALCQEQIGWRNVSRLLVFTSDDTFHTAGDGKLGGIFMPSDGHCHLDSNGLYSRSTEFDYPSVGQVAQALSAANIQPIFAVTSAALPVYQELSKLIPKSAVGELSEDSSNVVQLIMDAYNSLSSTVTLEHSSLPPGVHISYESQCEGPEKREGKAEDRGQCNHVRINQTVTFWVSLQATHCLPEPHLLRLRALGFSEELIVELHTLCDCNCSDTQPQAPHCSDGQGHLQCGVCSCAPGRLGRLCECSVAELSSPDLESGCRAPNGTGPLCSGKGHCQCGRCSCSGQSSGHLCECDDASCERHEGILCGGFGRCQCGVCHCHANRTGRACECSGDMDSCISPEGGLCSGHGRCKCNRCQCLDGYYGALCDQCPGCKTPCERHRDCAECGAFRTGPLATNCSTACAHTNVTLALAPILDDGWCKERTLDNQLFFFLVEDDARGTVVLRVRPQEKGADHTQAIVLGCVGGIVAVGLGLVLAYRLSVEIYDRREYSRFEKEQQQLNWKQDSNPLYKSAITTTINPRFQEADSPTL
Procedure: as §1, §2

`Cc1ccccc1OCC(=O)N[C@@H](CC(C)C)C(=O)N[C@@H](Cc1ccc(OC(=O)N2CCC(C(N)=O)CC2)cc1)C(=O)O` [GW559090, (2S)-3-[4-({[4-(Aminocarbonyl)-1-piperidinyl]carbonyl}oxy)phenyl]-2-[((2S)-4-methyl-2-{[2-(2-methylphenoxy)acetyl]amino}pentanoyl)amino]propanoic acid] was tested, and the “Inhibition of J6 cell adhesion to MAdCAM (curve form)” value [1] was “biphasic” and the IC50 (α4β7-MAdCAM) was 23 nM.
